Data taken from patent publication US20080261911A1, “Uses of diphenyl/diphenylamine carboxylic acids” (priority 2006, published 2008).
Marks after values point to notes of the source that are not given here.

Columns and labels:
[1] = test system: orthotopically implanted human pancreatic L3.6p1 cancer cells; experiment: Orthotopic pancreatic tumor model in athymic nude mice; settings: for Body Weight Median / Incidence Liver metastasis / Pancreatic Tumor Incidence (positive mice/mice injected) / Tumor Volume Median / Tumor Weight Median: thrice weekly oral from day 7, sacrificed day 35
Experimental: Median tumor volumes (FIG. 8A) and weights (FIG. 8B) in athymic nude mice treated orthotopically with L3.6pl cells, and corn oil (control), tolfenamic acid (25 and 50 mg/kg), and gemcitabine (50 mg/kg) were determined. […] Tumors from the various treatment groups were analyzed for Sp1, Sp3, Sp4, and VEGF protein expression by Western blot analysis. […] Immunostaining is shown for VEGF (FIG. 8D), and CD31 (FIG. 8E). Pancreatic tumor sections from animals treated with solvent (control), gemcitabine (50 mg/kg) and tolfenamic acid (25 and 50 mg/kg) were immunostained with VEGF and CD31 antibodies.
Male athymic nude mice (NCI-nu) are purchased from the Animal Production Area of the National Cancer Institute Frederick Cancer Research and Development Center, housed and maintained under specific pathogen-free conditions in accordance with current regulations and standards of the United States Department of Agriculture. Injection of L3.6pl cells (with greater than 90% viability is performed as previously described (Bruns et al, 1999). Seven days after implantation of tumor cells into the pancreas of each mouse, five mice are killed to confirm the presence of tumor lesions.
Mice (10 animals per treatment group) are randomized to receive one of the following treatments: (1) thrice weekly oral administrations of vehicle solution which will serve as a control group; (2) thrice weekly oral administrations of at least three non-steroidal anti-inflammatory drugs at doses of 10, 25, and 50 mg/kg/day; (3) twice weekly intraperitoneal injections of 50, 75, and 100 mg/kg/day gemcitabine alone; and (4) combinations of gemcitabine and non-steroidal anti-inflammatory drugs. Mice are sacrificed on day 35 and body weights measured. Primary tumors in the pancreas are excised, measured, weighed. For immunohistochemistry (IHC) and hematoxylin and eosin (H&E) staining procedures, one part of the tumor tissue is fixed in formalin and embedded in paraffin, and another part is embedded in TISSUE-TEK® O.C.T. compound, rapidly frozen in liquid nitrogen, and stored at −70° C. Visible liver metastases are counted with the aid of a dissecting microscope, and the tissues processed for hematoxylin and eosin staining.
Paraffin-embedded tissues are used for identification of Sp proteins, VEGFR2p27 and vascular endothelial growth factor. Tissue sections ([…] thick) are mounted on positively charged SUPERFROST slides (Fischer Scientific, Co, Houston, Tex.) and dried overnight. Sections are deparaffinized in xylene and treated with a graded series of alcohol [100, 95, and 80% ethanol (v/v) in double distilled H2O] and rehydrated in phosphate buffered saline (pH 7.5). Tissues are treated with pepsin (Biomeda) for 15 min at 37° C. and washed with phosphate buffered saline. A positive reaction is visualized by incubating the slides with stable 3,3′-diaminobenzidine for 10-20 min. Sections are rinsed with distilled water, counterstained with Gill's hematoxylin for 1 min, and mounted with UNIVERSAL MOUNT (Research Genetics). […] Tumor sample lysates are also examined by western blot analysis for the same proteins.
The potential anti-tumorigenic and anti-angiogenic activity of tolfenamic acid against pancreatic tumors was investigated in an orthotopic athymic nude mouse model. L3.6pl cells were used for this study based on their aggressive growth and production of liver metastases (Bruns et al, 1999; Dubois et al, 1998).

VEGFR1 mRNA = VEGFR1 mRNA in L3.6pl cells, semi-quantitative RT-PCR; format: cell-based, human; settings: 50 μM, 24 h
VEGF protein = VEGF protein expression in Panc-1 cells, Western blot; format: cell-based; settings: 50 μM, 48 hr, compared to DMSO
[2] = test system: Sp protein binding to GC-rich VEGF promoter oligonucleotide; experiment: Gel mobility shift of nuclear extracts from L3.6pl cells with VEGF32P; format: cell-based, human; settings: nuclear extracts of L3.6pl cells treated with 50 μM for 48 hr
Experimental: Vascular endothelial growth factor and VEGFR1 oligonucleotides are synthesized and annealed, and 5 pmol aliquots are 5′-end-labeled using T4 kinase and [y-^32P]ATP. After the reaction sample was incubated 20 min on ice, and antibodies against Sp1, Sp3, and Sp4 proteins are added and incubated another 20 min on ice. Protein-DNA complexes are resolved by 5% polyacrylamide gel electrophoresis as previously described (Abdelrahim et al, 2004; Abdelrahim et al, 2005, Abdelrahim et al, submitted 2005).
Panc1 or L3.6pl cells were treated with DMSO, 50 μM tolfenamic acid or 50 μM ampiroxicam for 48 hr. Nuclear extracts from these cells were isolated, incubated with VEGF^32P and analyzed in gel mobility shift assays.
The radiolabeled oligonucleotide contained a GC-rich region (−66 to −47) from the VEGF promoter that binds Sp proteins.

[3] = test system: Bic-1 esophageal cancer cells; experiment: Western blot of Sp and Sp-dependent proteins in BIC-1 esophageal cancer cells; format: cell-based; settings: Bic-1 cells, 25-100 μM
Experimental: Cells are washed once with phosphate buffered saline PBS and collected by scraping in 200 μL of lysis buffer [50 mM HEPES, 0.5M sodium chloride, 1.5 mM magnesium chloride, 1 mM EGTA, 10% (v/v) glycerol, 1% Triton X-100, 5 μL/ml of Protease Inhibitor Cocktail (Sigma)]. The lysates from the cells are incubated on ice for 1 hr with intermittent vortexing followed by centrifugation at 40,000 g for 10 min at 4° C. Equal amounts of protein (60 μg) from each treatment group are diluted with loading buffer, boiled and loaded onto 10 and 12.5% SDS-polyacrylamide gel. For vascular endothelial growth factor immunoblots, 100 μg of protein are used. Samples are electrophoresed, transferred to membranes, and proteins detected by incubation with polyclonal primary antibodies Sp1, Sp3, Sp4, HDAC, VEGF (a-20), c-Met, surviving, VEGF, cleaved PARP, and β-tubulin (H-235) followed by blotting with appropriate horseradish peroxidase-conjugated secondary antibody as previously described (Abdelrahim et al, 2004). After autoradiography, band intensities are determined by a scanning laser densitometer (Sharp Electronics Corporation, Mahwah, N.J.) using ZERO-D SCANALYTICS software (Scanalytics Corporation, Billerica, Mass.).

L3.6pl cells = experiment: Cell proliferation assay, L3.6pl cells; format: cell-based, human
Experimental: FIGS. 7A-7D compares effects of tolfenamic acid and ampiroxicam on pancreatic cancer cell proliferation. […] Panc1, Panc28 and L3.6pl cells are seeded in DMEM/F12 media with 5% FBS and treated the next day with either vehicle (DMSO) or with the indicated compounds' concentrations. Cells are counted at the indicated times using a Z1™ COULTER COUNTER® cell counter. Each experiment is carried out in triplicate and results expressed as means ±SD for each determination.

[4] = test system: Bic-1 esophageal cancer cells; experiment: Cell proliferation assay, BIC-1 esophageal cancer cells; format: cell-based; design: dose or concentration left out as unconfirmed; settings: tolfenamic acid, DMSO control
[5] = tolfenamic acid 50 mg/kg, p < 0.005 vs controls

Q: What does the source list for `Cc1c(Cl)cccc1Nc1ccccc1C(=O)O` [tolfenamic acid]?
A: median tumor weights and volumes ([1]; 25 or 50 mg/kg/d): decreased median tumor weights and volumes; percent incidence of liver metastasis ([1]; 25 or 50 mg/kg/d): decreased the percent incidence of liver metastasis; tumor growth inhibition compared with gemcitabine ([1]; at comparable doses): more effective than gemcitabine as a tumor growth inhibitor; CD31 staining (microvessel density) in tumors ([1]; compared to tumors from vehicle (corn oil) or gemcitabine-treated animals): decreased staining; Body Weight Median ([1]; tolfenamic acid 25 mg/kg): 25 g; Incidence Liver metastasis ([1]; tolfenamic acid 25 mg/kg): 1/10; Pancreatic Tumor Incidence (positive mice/mice injected) ([1]; tolfenamic acid 25 mg/kg): 10/10; Tumor Volume Median ([1]; tolfenamic acid 25 mg/kg): 1732.8 mm^3; Tumor Weight Median ([1]; tolfenamic acid 25 mg/kg): 1.2 g; Body Weight Median ([1]; tolfenamic acid 50 mg/kg): 24 g; Incidence Liver metastasis ([1]; tolfenamic acid 50 mg/kg): 1/10; Pancreatic Tumor Incidence (positive mice/mice injected) ([1]; tolfenamic acid 50 mg/kg): 10/10; Tumor Volume Median [1, 5]: 348.8^c mm^3; Tumor Weight Median [1, 5]: 0.4^c g; immunostaining for vascular endothelial growth factor in tumor sections ([1]; tolfenamic acid 25 and 50 mg/kg): decreased staining; VEGFR1 staining of tumor tissue ([1]; tolfenamic acid 25 and 50 mg/kg, gemcitabine 50 mg/kg and solvent as comparison): decreased VEGFR1 expression only in tumors from tolfenamic acid-treated mice; expression of Sp1, Sp3, Sp4 and vascular endothelial growth factor in pancreatic tumors, Western blot ([1]; tolfenamic acid versus corn oil control-treated animals): significantly decreased expression of Sp1, Sp3, Sp4 and vascular endothelial growth factor; VEGFR1 mRNA levels (VEGFR1 mRNA): decreased VEGFR1 mRNA levels; decrease of vascular endothelial growth factor expression (protein) (VEGF protein): greater than 60%; Sp3 and Sp1/Sp4 retarded bands with VEGF32P [2]: retarded bands were decreased; apoptosis as shown by PARP cleavage [3]: induced apoptosis; expression of Sp-dependent proteins VEGF, survivin, and c-Met [3]: decreased expression of Sp-dependent proteins vascular endothelial growth factor (VEGF), survivin, and c-Met; protein expression of Sp1, Sp3, and Sp4 [3]: decreased protein expression of Sp1, Sp3, and Sp4; potency as inhibitor of pancreatic cell growth relative to ampiroxicam (L3.6pl cells): more potent as an inhibitor of pancreatic cell growth than ampiroxicam; cell growth (L3.6pl cells; 25-100 μM, 6 days): significantly (p<0.05) inhibited cell growth; growth of BIC-1 esophageal cancer cells [4]: inhibits growth
